For data set [1], the system named is Frings audiogenic seizure susceptible mice. Kind of data set: Audiogenic seizure susceptibility of Frings mice. In kind it is in vivo. The settings on record: for P.I.: Table 6, TD50/ED50.
Method: All compounds were administered i.p. Varying doses of the compounds were tested. At the predetermined time of peak anticonvulsant effect, individual mice were placed into a round Plexiglas chamber (diameter, 15 cm; height, 18 cm) pitted with an audio transducer (Model A5-ZC; FET Research & Development, Salt Lake City, Utah) and exposed to a high intensity sound stimulus (110 decibels, 11 KHz) for 25 seconds. Animals not displaying tonic forelimb or hindlimb extension were considered protected. The effect of the test compounds on motor performance was assessed by the rotorod test (Dunham and Miya, 1957). For this procedure, mice were tested for their ability to maintain balance on a rotating (6 rpm) knurled Plexiglas rod (1 inch diameter) for one minute. Mice unable to maintain balance in three successive trials during the test period were considered toxic. The median effective dose (ED50) and the median toxic dose (TD50) was calculated by probit analysis (Finney, 1971). For these studies, the dose of each test substance was varied between the limits of 0 and 100% protection and toxicity. The protective index (PI) is TD50/ED50.
The next data set in a line: in vivo. The settings on record: Frings, mouse.
The target of the next data set is T1, MT2 receptor subtype (Homo sapiens, UniProt P49286).
T1 construct: host or cells: NIH-3T3 cells
T1 sequence (P49286 1-362): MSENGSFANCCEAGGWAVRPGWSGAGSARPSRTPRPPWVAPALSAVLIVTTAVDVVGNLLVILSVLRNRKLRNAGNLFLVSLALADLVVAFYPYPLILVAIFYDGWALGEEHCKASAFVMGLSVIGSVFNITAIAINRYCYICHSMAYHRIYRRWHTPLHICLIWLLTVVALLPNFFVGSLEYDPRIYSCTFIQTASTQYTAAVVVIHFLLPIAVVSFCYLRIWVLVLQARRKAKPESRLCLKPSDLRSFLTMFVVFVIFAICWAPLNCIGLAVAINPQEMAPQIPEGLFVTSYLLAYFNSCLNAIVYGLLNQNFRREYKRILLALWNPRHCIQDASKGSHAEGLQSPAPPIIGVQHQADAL
The settings on record: radioligand binding, clones in NIH-3T3 cells; cited from earlier work.

Data set [2] has as its system Frings audiogenic seizure-susceptible mice. Kind of data set: Rotorod test of motor performance (toxicity) in Frings mice. Conditions: Table 6, i.p., rotorod.
Method: (§1) All compounds were administered i.p. Varying doses of the compounds were tested. […] For this procedure, mice were tested for their ability to maintain balance on a rotating (6 rpm) knurled Plexiglas rod (1 inch diameter) for one minute. Mice unable to maintain balance in three successive trials during the test period were considered toxic. […] For these studies, the dose of each test substance was varied between the limits of 0 and 100% protection and toxicity. The protective index (PI) is TD50/ED50.
The test system of the next data set is rat. The settings on record: cited from earlier work.
The subject of the next data set is mice. Kind of data set: Elevated platform test for phencyclidine-like behavioral effects. Conditions: 44.5 nmol dose, control. Format: in vivo. Here is the method: The in vivo phencyclidine-like behavioral effects of CGX-031-120 is assessed by the elevated platform test as described by Evoniuk et al. (1991). The platform test is a rapid method for evaluating the behavioral effects of phencyclidine-like dissociative anesthetics in mice. […] Alternatively, as a control, a 44.5 nmol dose of MK 801 (dizocilpine) elicited 87.5% drug-induced falls from the elevated platform.

Data set [3] relates to children with sleep disturbances. Conditions: single dose of 5-10 mg; cited from earlier work.
The conditions of data set [4]: Sugden's study; cited from earlier work.
The nature of data set [5]: Formalin model of persistent pain (Example 11). In kind it is in vivo. Here is the method: In this model, two distinct phases of nociceptive activity (paw licking) are observed. […] The second phase is caused by the release of inflammatory factors from tissue damage caused by formalin injection. This phase lasts for 30 to 40 minutes, and is a model of persistent inflammatory pain. The second phase is also predictive of analgesic drugs that will show efficacy in models of chronic and neurophathic pain. [drawing 2]

The next data set relates to rodents. The settings on record: 25 μg chronically for 13 weeks; cited from earlier work.
For data set [6] the following is noted: Sugden's study; cited from earlier work. This is another data set of the same source.
[7] abbreviates: Mus musculus, ip, Table 6, i.p., time of peak effect, read-out: ED50.
The mark [8] stands for this setting: Table 6, i.p., time of peak effect.

The text below walks through data of patent publication US20020040018A1, “Subtype selective melatonergics” (priority 2000, published 2002).

Molecules are shown by their SMILES. Like-named read-outs stand apart in the source and are kept apart here.

Method for in vivo: as §1

One may read the ED50 as the midpoint of the dose-response relation. Take `CCCC(CCC)C(=O)O` [Depakote ®, reference compound]: the ED50 in data set [1] (setting [7]) amounted to 155 mg/kg. Also, the P.I. in data set [1] stood at 2.6.
As to `O=C1NC(=O)C(c2ccccc2)(c2ccccc2)N1` [Dilantin ®, reference compound], the TD50 in “in vivo” (ip) is 41 mg/kg. In addition, the ED50 in data set [1] (setting [7]) was found to be 3.9 mg/kg. In data set [1], this compound gave a P.I. of 10.5.
`NC(=O)OCC(COC(N)=O)c1ccccc1` [Felbatol ®, reference compound]: the TD50 in the data set “in vivo” (ip) is 220 mg/kg. Moreover, the ED50 in [1] (setting [7]) amounted to 10 mg/kg. This compound also returned a P.I. in data set [1] of 22.
In the case of `CCCC(=O)NCCc1c2n(c3ccc(OC)cc13)Cc1ccccc1-2` [IIK7, N-butanoyl-2-(2-methoxy-6H-isoindolo-[2,1a]-indol-11-yl)-ethanamine], the “selectivity for the MT2 receptor subtype” value at MT2 receptor subtype is 140 fold.
For `O=C1CN=C(c2ccccc2Cl)c2cc([N+](=O)[O-])ccc2N1` [Klonipin ®, reference compound], in [2], the “TD50” value is 0.26 mg/kg. This compound gave a P.I. in data set [1] of 2.6. For the same compound, the “ED50” value in data set [1] (setting [8]) is on record as 0.10 mg/kg.
In the case of `CC(=O)NCCc1c(Cc2ccccc2)[nH]c2ccccc12` [Luzindole], the “antagonism of melatonin induced anti-nociception” value in the data set with rat (i.c.v. (Luzindole 50 & 100 μg)) is listed as “antagonized”.
Consider `C[C@]12N[C@H](Cc3ccccc31)c1ccccc12` [MK 801, reference compound], for which, in the data set with mice, the “drug-induced falls from the elevated platform” value was 87.5%.
In the case of `COc1ccc2[nH]cc(CCNC(C)=O)c2c1` [Melatonin, N-acetyl-5-methoxytryptamine], the anti-nociceptive effect result in the data set with rat (ip 30, 60, 120 mg/kg) is reported as “dose-dependent anti-nociceptive effect”. The “frequency of epileptic attacks” value in data set [3] is “positive effect”. Further, in data set [4], the “ED50 v ECS” value is given as 159 mg/kg. The TD50 in “in vivo” (intraperitoneal) stood at 363 mg/kg; in the data set “in vivo” (ip), 342 mg/kg. Also, the “licking time following formalin injection” value in data set [5] (both phases, 5 doses) is “dose-dependently reduced the licking time”. Besides, the “dose at which reduction of licking time reaches significance” value in [5] (phase one) is listed as at least 100 mg/kg; in data set [5] (phase two) it was at least 200 mg/kg. Further, the “number and severity of seizures induced by PTZ” value with rodents is “reduced the number and severity of seizures”. For the same compound, in [6], the “ED50 v 3-MPA” value is on record as 115 mg/kg. For the same compound, the ED50 in [1] (Mus musculus, ip) is 82 mg/kg; in [1] (audiogenic mouse model, read-out: ED50), 83 mg/kg.
In the case of `NC(=O)N1c2ccccc2C=Cc2ccccc21` [Tegratol ®, reference compound], the “TD50” value in [2] is given as 45.4 mg/kg. The compound also yielded a P.I. in data set [1] of 4.1. Also, the “ED50” value in data set [1] (setting [8]) is on record as 11.2 mg/kg.
Compound `CCC1(C)CC(=O)NC1=O` (stereo not shown) [Zarontin ®, reference compound] showed a TD50 in the data set “in vivo” (ip) of 340 mg/kg. Moreover, in data set [1], the P.I. is 1.04.
